Source: ChEMBL document CHEMBL1681651, “A broad spectrum anticancer nucleoside with selective toxicity against human colon cells in vitro” (2011)

How the values were obtained:
Assay type in all cases: functional
[1] = tested on: OVCAR-4; test: Growth inhibition of human OVCAR4 cells assessed as cell growth at 100 uM after 48 hrs by SRB assay; conditions: OVCAR-4, 48 h, read-out: Activity
[2] = tested on: OVCAR-4; test: Growth inhibition of human OVCAR4 cells assessed as cell growth at 1 uM after 48 hrs by SRB assay; conditions: OVCAR-4, 48 h, read-out: Activity
[3] = tested on: SN12C; test: Growth inhibition of human SN12C cells assessed as cell growth at 1 mM after 48 hrs by SRB assay; conditions: read-out: Activity
[4] = tested on: UO-31; test: Growth inhibition of human UO31 cells after 48 hrs by […] growth inhibition assay; conditions: UO-31, 48 h
[5] = tested on: LOX IMVI; test: Growth inhibition of human LOXIMVI cells assessed as cell growth at 1 mM after 48 hrs by SRB assay; conditions: read-out: Activity
[6] = tested on: NCI-H226; test: Growth inhibition of human NCI-H226 cells assessed as cell growth at 100 uM after 48 hrs by SRB assay; conditions: NCI-H226, 48 h, read-out: Activity
[7] = tested on: SN12C; test: Growth inhibition of human SN12C cells assessed as cell growth at 100 uM after 48 hrs by SRB assay; conditions: read-out: Activity
[8] = tested on: ACHN; test: Growth inhibition of human ACHN cells assessed as cell growth at 10 uM after 48 hrs by SRB assay; conditions: read-out: Activity
[9] = tested on: HCT-116; test: Growth inhibition of human HCT116 cells assessed as cell growth at 100 uM after 48 hrs by SRB assay; conditions: HCT-116, 48 h, read-out: Activity
[10] = tested on: SF-268; test: Growth inhibition of human SF268 cells assessed as cell growth at 100 uM after 48 hrs by SRB assay; conditions: SF-268, 48 h, read-out: Activity
[11] = tested on: SF-539; test: Growth inhibition of human SF539 cells assessed as cell growth at 100 uM after 48 hrs by SRB assay; conditions: SF-539, 48 h, read-out: Activity
[12] = tested on: NCI-H322M; test: Growth inhibition of human NCI-H322M cells assessed as cell growth at 0.1 uM after 48 hrs by SRB assay; conditions: read-out: Activity
[13] = tested on: UACC-257; test: Growth inhibition of human UACC257 cells assessed as cell growth at 1 uM after 48 hrs by SRB assay; conditions: UACC-257, 48 h, read-out: Activity
[14] = tested on: ACHN; test: Growth inhibition of human ACHN cells after 48 hrs by […] growth inhibition assay
[15] = tested on: NCI-H226; test: Growth inhibition of human NCI-H226 cells assessed as cell growth at 0.1 uM after 48 hrs by SRB assay; conditions: NCI-H226, 48 h, read-out: Activity
[16] = tested on: UACC-62; test: Growth inhibition of human UACC62 cells assessed as cell growth at 0.1 uM after 48 hrs by SRB assay; conditions: UACC-62, 48 h, read-out: Activity
[17] = tested on: HOP-92; test: Growth inhibition of human HOP92 cells assessed as cell growth at 10 uM after 48 hrs by SRB assay; conditions: HOP-92, 48 h, read-out: Activity
[18] = tested on: A549; test: Growth inhibition of human A549 cells assessed as cell growth at 1 mM after 48 hrs by SRB assay; conditions: A549, 48 h, read-out: Activity
[19] = tested on: SNB-75; test: Growth inhibition of human SNB75 cells after 48 hrs by […] growth inhibition assay; conditions: SNB-75, 48 h
[20] = tested on: U-251; test: Growth inhibition of human U251 cells assessed as cell growth at 0.1 uM after 48 hrs by SRB assay; conditions: U-251, 48 h, read-out: Activity
[21] = tested on: CAKI-1; test: Growth inhibition of human Caki1 cells after 48 hrs by […] growth inhibition assay; conditions: CAKI-1, 48 h
[22] = tested on: M14; test: Growth inhibition of human M14 cells assessed as cell growth at 10 uM after 48 hrs by SRB assay; conditions: M14, 48 h, read-out: Activity
[23] = tested on: UACC-62; test: Growth inhibition of human UACC62 cells assessed as cell growth at 10 uM after 48 hrs by SRB assay; conditions: UACC-62, 48 h, read-out: Activity
[24] = tested on: CAKI-1; test: Growth inhibition of human Caki1 cells assessed as cell growth at 1 mM after 48 hrs by SRB assay; conditions: CAKI-1, 48 h, read-out: Activity
[25] = tested on: 786-0; test: Growth inhibition of human 786-0 cells assessed as cell growth at 1 mM after 48 hrs by SRB assay; conditions: 786-0, 48 h, read-out: Activity
[26] = tested on: SNB-19; test: Growth inhibition of human SNB19 cells assessed as cell growth at 1 uM after 48 hrs by SRB assay; conditions: SNB-19, 48 h, read-out: Activity
[27] = tested on: A498; test: Growth inhibition of human A498 cells assessed as cell growth at 1 mM after 48 hrs by SRB assay; conditions: A498, 48 h, read-out: Activity
[28] = tested on: NCI-H322M; test: Growth inhibition of human NCI-H322M cells assessed as cell growth at 1 uM after 48 hrs by SRB assay; conditions: read-out: Activity
[29] = tested on: BT-549; test: Growth inhibition of human BT549 cells assessed as cell growth at 0.1 uM after 48 hrs by SRB assay; conditions: BT-549, 48 h, read-out: Activity
[30] = tested on: SNB-19; test: Growth inhibition of human SNB19 cells assessed as cell growth at 100 uM after 48 hrs by SRB assay; conditions: SNB-19, 48 h, read-out: Activity
[31] = tested on: BT-549; test: Growth inhibition of human BT549 cells assessed as cell growth at 1 uM after 48 hrs by SRB assay; conditions: BT-549, 48 h, read-out: Activity
[32] = tested on: BT-549; test: Growth inhibition of human BT549 cells assessed as cell growth at 1 mM after 48 hrs by SRB assay; conditions: BT-549, 48 h, read-out: Activity
[33] = tested on: KM12; test: Growth inhibition of human KM12 cells assessed as cell growth at 100 uM after 48 hrs by SRB assay; conditions: KM12, 48 h, read-out: Activity
[34] = tested on: HOP-62; test: Growth inhibition of human HOP62 cells assessed as cell growth at 100 uM after 48 hrs by SRB assay; conditions: HOP-62, 48 h, read-out: Activity
[35] = tested on: LOX IMVI; test: Growth inhibition of human LOXIMVI cells after 48 hrs by […] growth inhibition assay
[36] = tested on: SR; test: Growth inhibition of human SR cells assessed as cell growth at 10 uM after 48 hrs by SRB assay; conditions: read-out: Activity
[37] = read-out: LC50 (the source's name)
[38] = read-out: pLC50 (the source's name) (converted)

## CNC(=O)NC[C@H]1O[C@@H](n2cnc3c(NC(=O)Nc4ccccc4)ncnc32)[C@H](O[Si](C)(C)C(C)(C)C)[C@@H]1O[Si](C)(C)C(C)(C)C
[1]
  growth at 100 µM: 7%
[2]
  growth at 1 µM: 108%
[3]
  growth at 1000 µM: -90%
[4]; read-out: GI50
  GI50: 2.5 µM
[4]; [37]
  CC50: > 100 µM
[4]; read-out: TGI
  TGI: 9.56 µM
[4]; read-out: pGI50 (converted)
  GI50: 2.51 µM
[4]; [38]
  CC50: > 100 µM
[4]; read-out: pTGI (converted)
  TGI: 9.55 µM
[5]
  growth at 1000 µM: -77%
[6]
  growth at 100 µM: -7%
[7]
  growth at 100 µM: -87%
[8]
  growth at 10 µM: 105%
[9]
  growth at 100 µM: -59%
[10]
  growth at 100 µM: 8%
[11]
  growth at 100 µM: 7%
[12]
  growth at 0.1 µM: 102%
[13]
  growth at 1 µM: 100%
[14]; read-out: GI50
  GI50: 3.83 µM
[14]; [37]
  CC50: > 100 µM
[14]; read-out: TGI
  TGI: > 100 µM
[14]; read-out: pGI50 (converted)
  GI50: 3.8 µM
[14]; [38]
  CC50: > 100 µM
[14]; read-out: pTGI
  TGI: > 100 µM
[15]
  growth at 0.1 µM: 102%
[16]
  growth at 0.1 µM: 102%
[17]
  growth at 10 µM: 69%
[18]
  growth at 1000 µM: -30%
[19]; read-out: GI50
  GI50: 2.43 µM
[19]; [37]
  CC50: > 100 µM
[19]; read-out: TGI
  TGI: 34.1 µM
[19]; read-out: pGI50 (converted)
  GI50: 2.45 µM
[19]; [38]
  CC50: > 100 µM
[19]; read-out: pTGI (converted)
  TGI: 33.9 µM
[20]
  growth at 0.1 µM: 102%
[21]; read-out: GI50
  GI50: 2.7 µM
[21]; [37]
  CC50: > 100 µM
[21]; read-out: TGI
  TGI: 7.93 µM
[21]; read-out: pGI50 (converted)
  GI50: 2.69 µM
[21]; [38]
  CC50: > 100 µM
[21]; read-out: pTGI (converted)
  TGI: 7.94 µM
[22]
  growth at 10 µM: 105%
[23]
  growth at 10 µM: 90%
[24]
  growth at 1000 µM: -33%
[25]
  growth at 1000 µM: -80%
[26]
  growth at 1 µM: 100%
[27]
  growth at 1000 µM: -76%
[28]
  growth at 1 µM: 106%
[29]
  growth at 0.1 µM: 113%
[30]
  growth at 100 µM: 29%
[31]
  growth at 1 µM: 112%
[32]
  growth at 1000 µM: -36%
[33]
  growth at 100 µM: -66%
[34]
  growth at 100 µM: 26%
[35]; read-out: GI50
  GI50: 1.82 µM
[35]; [37]
  CC50: 6.21 µM
[35]; read-out: TGI
  TGI: 3.36 µM
[35]; read-out: pGI50 (converted)
  GI50: 1.82 µM
[35]; [38]
  CC50: 6.17 µM
[35]; read-out: pTGI (converted)
  TGI: 3.39 µM

## CCOC(=O)C[C@H]1[C@@H](O[Si](C)(C)C(C)(C)C)[C@H](n2cnc3c(NC(=O)Nc4ccccc4)ncnc32)O[C@@H]1CNC(=O)NC
[1]
  growth at 100 µM: 53%
[2]
  growth at 1 µM: 103%
[3]
  growth at 1000 µM: 11%
[4]; read-out: GI50
  GI50: 12.1 µM
[4]; [37]
  CC50: 71.7 µM
[4]; read-out: TGI
  TGI: 29.5 µM
[4]; read-out: pGI50 (converted)
  GI50: 12 µM
[4]; [38]
  CC50: 72.4 µM
[4]; read-out: pTGI (converted)
  TGI: 29.5 µM
[5]
  growth at 1000 µM: 4%
[6]
  growth at 100 µM: 71%
[7]
  growth at 100 µM: 48%
[36]
  growth at 10 µM: 85%
[8]
  growth at 10 µM: 96%
[9]
  growth at 100 µM: 23%
[10]
  growth at 100 µM: 40%
[11]
  growth at 100 µM: 29%
[12]
  growth at 0.1 µM: 105%
[13]
  growth at 1 µM: 102%
[14]; read-out: GI50
  GI50: 8.55 µM
[14]; [37]
  CC50: > 100 µM
[14]; read-out: TGI
  TGI: > 100 µM
[14]; read-out: pGI50 (converted)
  GI50: 8.51 µM
[14]; [38]
  CC50: > 100 µM
[14]; read-out: pTGI
  TGI: > 100 µM
[15]
  growth at 0.1 µM: 101%
[16]
  growth at 0.1 µM: 100%
[17]
  growth at 10 µM: 12%
[18]
  growth at 1000 µM: -58%
[19]; read-out: GI50
  GI50: 4.56 µM
[19]; [37]
  CC50: > 100 µM
[19]; read-out: TGI
  TGI: > 100 µM
[19]; read-out: pGI50 (converted)
  GI50: 4.57 µM
[19]; [38]
  CC50: > 100 µM
[19]; read-out: pTGI (converted)
  TGI: > 100 µM
[20]
  growth at 0.1 µM: 98%
[21]; read-out: GI50
  GI50: 29.7 µM
[21]; [37]
  CC50: > 100 µM
[21]; read-out: TGI
  TGI: > 100 µM
[21]; read-out: pGI50 (converted)
  GI50: 29.5 µM
[21]; [38]
  CC50: > 100 µM
[21]; read-out: pTGI (converted)
  TGI: > 100 µM
[22]
  growth at 10 µM: 81%
[23]
  growth at 10 µM: 97%
[24]
  growth at 1000 µM: 7%
[25]
  growth at 1000 µM: -97%
[26]
  growth at 1 µM: 95%
[27]
  growth at 1000 µM: -41%
[28]
  growth at 1 µM: 90%
[29]
  growth at 0.1 µM: 104%
[30]
  growth at 100 µM: 82%
[31]
  growth at 1 µM: 109%
[32]
  growth at 1000 µM: 51%
[33]
  growth at 100 µM: 13%
[34]
  growth at 100 µM: 48%
[35]; read-out: GI50
  GI50: 5.46 µM
[35]; [37]
  CC50: > 100 µM
[35]; read-out: TGI
  TGI: > 100 µM
[35]; read-out: pGI50 (converted)
  GI50: 5.5 µM
[35]; [38]
  CC50: > 100 µM
[35]; read-out: pTGI (converted)
  TGI: > 100 µM
